Source: the CheMixHub viscosity set
Values joined by “and” are separate entries in the source; they are usually repeats but may differ in a detail not shown here. Equal entries are not always repeated.

CCC#N
viscosity [mPa·s]
Conditions	298.15 K	303.15 K	308.15 K	313.15 K	318.15 K	323.15 K
101 kPa	0.42	0.41	0.39	0.37	0.36	0.31
101.33 kPa	–	0.3886	–	–	–	–

CCCCCC(=O)[O-].[NH3+]CCO
101 kPa
Conditions	viscosity [mPa·s]
293.15 K	2571
298.15 K	1765
303.15 K	1239
308.15 K	892.2
313.15 K	645.8
318.15 K	477.6
323.15 K	358.5

CCCCCCC(=O)[O-].CC[NH+](C(C)C)C(C)C
Conditions	viscosity [mPa·s]
298.15 K, 101.3 kPa	12.23

CCCCCCCCCCCC
Conditions	viscosity
298.15 K, 101 kPa	1.34 mPa·s and 1.338 mPa·s and 1.336 mPa·s
298.15 K, 101.33 kPa	1.324 mPa·s
298.15 K, 103 kPa	1.291 mPa·s
303.15 K, 101.33 kPa	1.215 mPa·s and 1.209 mPa·s
307.52 K, 101.3 kPa	1.159 mPa·s
307.57 K, 101.3 kPa	1.159 mPa·s
308.15 K, 100 kPa	1.115 mPa·s and 1.157 mPa·s
308.15 K, 101 kPa	1.112 mPa·s and 1.125 mPa·s
308.15 K, 103 kPa	1.086 mPa·s
313.15 K, 101 kPa	1.039 mPa·s
313.15 K, 101.33 kPa	1.025 mPa·s
318.15 K, 100 kPa	0.986 mPa·s
318.15 K, 101 kPa	0.935 mPa·s and 0.965 mPa·s
318.15 K, 101.33 kPa	0.935 mPa·s
318.15 K, 103 kPa	0.936 mPa·s
323.15 K, 100 kPa	0.9146 mPa·s and 0.921 mPa·s
323.15 K, 101 kPa	0.898 mPa·s
323.15 K, 102 kPa	0.917 mPa·s (2×) and 0.919 mPa·s

CCCCCCCCCCCC[P+](CC)(CC)CC.N#Cc1ccc[n-]1
100 kPa
Conditions	viscosity
293.15 K	422 mPa·s and 423 mPa·s
298.15 K	296 mPa·s and 310 mPa·s
303.15 K	212 mPa·s and 214 mPa·s
313.15 K	117 mPa·s and 114 mPa·s

CCCCCCCCCCO
Conditions	viscosity
293.15 K, 100 kPa	14.27 mPa·s
293.15 K, 101 kPa	13.04 mPa·s
293.15 K, 101.33 kPa	14.55 mPa·s
298.15 K, 101.33 kPa	11.57 mPa·s
300 K, 101 kPa	10.3 mPa·s
303.15 K, 100 kPa	9.708 mPa·s
303.15 K, 101.3 kPa	8.835 mPa·s
308 K, 101 kPa	7.646 mPa·s
308.15 K, 100 kPa	8.108 mPa·s
308.15 K, 101.3 kPa	8.39 mPa·s
308.15 K, 101.33 kPa	7.918 mPa·s
310 K, 101 kPa	7.09 mPa·s
313 K, 101 kPa	6.396 mPa·s
313.15 K, 100 kPa	6.846 mPa·s
313.15 K, 101 kPa	6.846 mPa·s and 7.929 mPa·s and 6.845 mPa·s
313.15 K, 101.3 kPa	6.955 mPa·s
313.15 K, 101.33 kPa	6.955 mPa·s and 6.955 mPa·s and 6.955 mPa·s
318.15 K, 100 kPa	5.879 mPa·s and 5.771 mPa·s and 5.785 mPa·s
318.15 K, 101.3 kPa	5.878 mPa·s
320 K, 101 kPa	5 mPa·s
323.15 K, 100 kPa	4.918 mPa·s and 4.94 mPa·s

CCOC(=O)OCC
Conditions	viscosity
293.15 K, 101 kPa	0.8024 mPa·s
298.15 K, 101 kPa	0.74 mPa·s and 0.7539 mPa·s
303.15 K, 100 kPa	0.698 mPa·s
303.15 K, 101 kPa	0.701 mPa·s
308.15 K, 100 kPa	0.65 mPa·s
308.15 K, 101 kPa	0.656 mPa·s
313.15 K, 100 kPa	0.622 mPa·s
313.15 K, 101 kPa	0.621 mPa·s
318.15 K, 100 kPa	0.58 mPa·s
318.15 K, 101.3 kPa	0.578 mPa·s
318.15 K, 101.33 kPa	0.578 mPa·s
323.15 K, 100 kPa	0.54 mPa·s
323.15 K, 101 kPa	0.543 mPa·s

CCn1cc[n+](C)c1.F[B-](F)(F)F
viscosity
Conditions	293.15 K	298.15 K	303.15 K	313.15 K	323.15 K
100 kPa	50.54 mPa·s	41.45 mPa·s	34.53 mPa·s	24.83 mPa·s	18.62 mPa·s
101 kPa	–	36.8 mPa·s	28 mPa·s and 28 mPa·s	20.41 mPa·s and 20.41 mPa·s	15.35 mPa·s and 15.35 mPa·s

CN1CCN(C)C1=O
100 kPa
Conditions	viscosity [mPa·s]
293.15 K	2.139
298.15 K	1.945
303.15 K	1.76
308.15 K	1.616
313.15 K	1.491
318.15 K	1.381
323.15 K	1.28

COC=O
Conditions	viscosity [mPa·s]
298.15 K, 101.33 kPa	0.328

COCCOCCO
viscosity
Conditions	293.15 K	298.15 K	303.15 K	308.15 K	313.15 K	318.15 K	323.15 K
101 kPa	3.906 mPa·s	3.442 mPa·s and 3.574 mPa·s	3.152 mPa·s	2.593 mPa·s	–	2.159 mPa·s	–
101.3 kPa	3.943 mPa·s	–	3.016 mPa·s	–	2.348 mPa·s	–	1.902 mPa·s
101.33 kPa	–	3.565 mPa·s and 3.565 mPa·s	–	2.627 mPa·s and 2.865 mPa·s	–	–	–

Cc1ccc(Cl)cc1
viscosity
Conditions	298.15 K	303.15 K	308.15 K	313.15 K	318.15 K
100 kPa	0.83 mPa·s	0.782 mPa·s	0.724 mPa·s and 0.737 mPa·s	0.682 mPa·s	0.632 mPa·s and 0.662 mPa·s
101 kPa	–	0.782 mPa·s and 0.782 mPa·s	0.728 mPa·s	0.684 mPa·s and 0.682 mPa·s	0.632 mPa·s

Cc1ccc(N)cc1
101 kPa
Conditions	viscosity [mPa·s]
313.05 K	2.08
323.1 K	1.8

Cc1ccccc1C
Conditions	viscosity
293.15 K, 101 kPa	0.7604 mPa·s
293.15 K, 101.33 kPa	0.812 mPa·s
298.15 K, 100 kPa	0.7464 mPa·s
298.15 K, 101 kPa	0.765 mPa·s and 0.761 mPa·s
298.15 K, 101.3 kPa	0.78 mPa·s
298.15 K, 101.33 kPa	0.7587 mPa·s
303.15 K, 101 kPa	0.6725 mPa·s and 0.68 mPa·s and 0.7095 mPa·s
303.15 K, 101.3 kPa	0.7272 mPa·s and 0.7062 mPa·s
303.15 K, 101.32 kPa	0.702 mPa·s
303.15 K, 101.33 kPa	0.757 mPa·s and 0.711 mPa·s
308.15 K, 100 kPa	0.6199 mPa·s
308.15 K, 101 kPa	0.676 mPa·s and 0.656 mPa·s
308.15 K, 101.33 kPa	0.5381 mPa·s and 0.725 mPa·s and 0.659 mPa·s
313.15 K, 101.32 kPa	0.627 mPa·s
313.15 K, 101.33 kPa	0.702 mPa·s
318.15 K, 101.33 kPa	0.682 mPa·s
323.15 K, 101.3 kPa	0.5554 mPa·s

Cl[Si](Cl)(Cl)Cl
101 kPa
Conditions	viscosity
303.1 K	0.462 mPa·s and 0.442 mPa·s
313.1 K	0.402 mPa·s

OCCN(CCO)CCO
viscosity
Conditions	293.15 K	298.15 K	303.15 K	313.15 K	323.15 K
100 kPa	935 mPa·s	611 mPa·s	413 mPa·s	–	–
101 kPa	911.7 mPa·s and 795 mPa·s	607 mPa·s	403 mPa·s	201.7 mPa·s	123 mPa·s

OCCOCCOCCO
viscosity
Conditions	293.15 K	298.1 K	298.15 K	308.15 K	313.15 K	318.15 K	323.15 K
100 kPa	42 mPa·s and 48.2 mPa·s and 48.4 mPa·s	–	37.1 mPa·s and 37.8 mPa·s	23.3 mPa·s	19.8 mPa·s	15.4 mPa·s and 15.83 mPa·s and 15.1 mPa·s	13.23 mPa·s
101 kPa	–	37.4 mPa·s	37.1 mPa·s	23.36 mPa·s and 21.2 mPa·s	19.8 mPa·s	15.59 mPa·s and 16.1 mPa·s	–
101.32 kPa	46.1 mPa·s	–	–	–	17.4 mPa·s	–	–

c1ccc(Oc2ccccc2)cc1
101 kPa
Conditions	viscosity
303.15 K	3.3 mPa·s and 3.051 mPa·s
308.15 K	2.92 mPa·s
313.15 K	2.61 mPa·s
